Measurements as given in patent US20260174780A1, “BISMUTH-THIOL COMPOSITIONS AND METHODS FOR TREATING INFLAMMATORY DISEASES” (Microbion Corporation, priority 2022, published 2026).

System: Hypo-InflammaSkin models
Test: Ex vivo human skin model of psoriasis (Hypo-InflammaSkin), cytokine release in culture medium
Type: cell-based
Details: for secretion of IL-22: Day 7 (FIG. 13R); for secretion of MIP-3α: Day 7 (FIG. 13S)
Text: Background: InflammaSkin® model is a validated psoriasis-like model developed to reproduce key features of pro-Th17/Th1 inflammation associated with psoriasis. It relies on the in situ activation of resident T-cell of normal skin biopsies and their further polarization into Th17/Th1 phenotype with the supplementation of culture medium with a cocktail of pro-inflammatory cytokines.
Model production and culture: 2 HypoSkin models of 15 mm in diameter (1.76 cm^2) were produced from 1 donor and cultured with 2 mL standard HypoSkin® medium. 20 Hypo-InflammaSkin models were produced from 1 donor by inducing in sit activation and Th17/Th1 polarization of skin resident T cells with proprietary cocktail and cultured with 2 mL Hypo-InflammaSkin® culture medium. The total treatable surface area of the models was 113 mm^2, and dosing of BisEDT took this into account based on dosing of the topical treatment. Models were maintained in standard cell culture conditions for the whole culture duration at 37° C., 5% CO2 and water saturation, with appropriate culture medium renewed every day.
Treatment Groups: Model Treatment: (1) HypoSkin® untreated control; (2) Hypo-InflammaSkin® untreated control; (3) topical betamethasone (positive control); (4) topical BisEDT—2.5 mg/mL (treatment applied every day from day 0 to 6; (5) topical BisEDT—1.25 mg/mL (treatment applied every day from day 3 to 6). N=3 per treatment group, except N=5 for Hypo-InflammaSkin® and N=1 for HypoSkin®.
Topical Treatment—Betamethasone (control): 25 μL of betamethasone was topically applied onto the surface of each skin model. Topical application was performed from Day 0 to Day 6 after removal of the previous treatment residues using a cotton swab.
Topical Treatment—BisEDT: 36 μL of the test compound was topically applied onto the surface of each skin model, massaging across the entire surface area for 1 minute, using a parafilm wrapped cotton swab; the compound was left on the skin. Topical application was performed from Day 0 to Day 6 (Treatment Group 4) or Day 3 to Day 6 (Treatment Group 5). A total of 9 models were topically treated.
Culture Media—culture media was collected on Day 3 prior to treatment application and on Day 7 and frozen at −80° C. A total of 42 culture media samples were collected.
IL-22 release: IL-22 release was measured in culture media using ELISA Human IL-22 Quantikine Kit (Bio-techne, ref D2200). Only samples from control conditions 1 to 3 were analyzed to assess donor's response to T cell activation. Each sample was analyzed in duplicate.
MSD Immunoassay—cytokine release (IL-2, IL-13, IL-15, IL-17A, IL-22, TNF-α, INF-γ, MIP-1β, and […]) in the culture medium was measured using the V-PLEX Plus Human Cytokine Kit (KI5089G, MesoScale Discovery) (FIGS. 13D-13S).

[1] = Day 3, compared to HypoInflammaSkin
[2] = Day 7, compared to untreated HypoInflammaSkin controls

In the case of `C1C[S][Bi]([S]CC[S][Bi]2[S]CC[S]2)[S]1` [BisEDT, 1,2-(Bis(1,3-dithia-2-bismolane)thio)ethane], the “MIP-1β levels vs betamethasone” value is reported as “lower than the steroid betamethasone”, the “reducing/preventing inflammation induced in the HypoInflammaSkin models, vs betamethasone” value is reported as “more effective than betamethasone” and the “secretion of IL-13” value [1] is reported as “reduced secretion”. For the same molecule, the “secretion of IL-15” value [1] was “reduced secretion”, the “secretion of IL-17A” value [1] was “reduced secretion” and the “secretion of INF-γ” value [1] was “reduced secretion”. For the same molecule, the “secretion of MIP-110” value [1] was “reduced secretion”, the “secretion of TNF-α” value [1] was “reduced secretion” and the IL-17A secretion (Day 3 and Day 7 (FIGS. 13D, 13E), compared to untreated HypoInflammaSkin) was “notable reduction”. For the same molecule, the TNF-α (Day 3 and Day 7 (FIGS. 13F, 13G), compared to untreated HypoInflammaSkin control) was “reduction”, the IFNγ secretion (Day 3 and Day 7 (FIGS. 13H, 13I), compared to untreated HypoInflammaSkin control) was “reduced” and the “secretion of MIP-1β” value (Day 3 and Day 7 (FIGS. 13L, 13M), compared to untreated HypoInflammaSkin) was “statistically significant decrease”. The MIP-1β level (Day 7) was “two out of three replicates below LOQ”, the “secretion of IL-22” value (compared to untreated HypoInflammaSkin control, listed as Pravibismane) was “reduced secretion” and the “secretion of IL-22” value (compared to untreated HypoInflammaSkin control, listed as pravibismane) was “continued to decrease”. For the same molecule, the “secretion of MIP-3α” value (compared to untreated HypoInflammaSkin, listed as Pravibismane) was “statistically significant decrease”, the “secretion of MIP-3α” value (compared to untreated HypoInflammaSkin, listed as pravibismane) was “continued to decrease” and the “secretion of IFN-γ” value [2] was “continued to decrease”. For the same molecule, the “secretion of IL-13” value [2] was “continued to decrease”, the “secretion of IL-15” value [2] was “continued to decrease” and the “secretion of IL-17A” value [2] was “continued to decrease”. For the same molecule, the “secretion of MIP-1β” value [2] was “continued to decrease”, the “secretion of TNF-α” value [2] was “continued to decrease” and the IL-15 secretion (pravibismane (day 3), compared to untreated HypoInflammaSkin) was “statistically significant reduction”. The “IL-15 secretion vs HypoSkin untreated” value (pravibismane treatment (day 3)) was “even lower than healthy uninflamed skin”, the “IL-17A levels vs positive control (betamethasone)” value (topical, started at day 0 or day 3) was “even lower than positive control” and the IL-13 secretion (treatment from day 0 (FIGS. 13N, 13O), compared to HypoInflammaSkin control) was “reduced”. For the same molecule, the “IFN-γ levels vs positive control (betamethasone)” value (treatment starting at Day 0) was “even lower than positive control” and the “TNF-α levels vs positive control (betamethasone)” value (treatment starting at Day 0) was “even lower than positive control”.
